# Test results: patent US20150037285A1, “METHODS FOR EFFICIENT TRANSFER OF VIABLE AND BIOACTIVE MICROBIOTA” (NEW YORK UNIVERSITY, priority 2013, published 2015)
# Tested on: C57BL/6J mice
# Assay: Sub-therapeutic antibiotic treatment (STAT) in drinking water, body composition versus Control drinking water
# Format: in vivo
# Conditions: STAT penicillin versus Control drinking water
# Source text: C57BL/6J (Jackson Labs, Bar Harbor Me.) mice either received no antibiotics (control) or continuous subtherapeutic antibiotic treatment (STAT) with penicillin in their drinking water. Mice were weaned at 4 weeks onto normal chow (13.2% fat, 5053 PicoLab Rodent Diet 20, LabDiet, Brentwood, Mo.) then changed to a high fat diet (45% kcal from fat, D12451, Research Diets, New Brunswick, N.J.) at 6 weeks of life. At 18 weeks of age, the three animals with weight at or closest to the median were selected as cecal content donors from each group (Control, n=7; STAT, n=8). Donor mice were humanely euthanized, and the proximal ⅓ of the cecum was aseptically removed and immediately (less than 1 minute) placed in reduced (no oxygen), sterile liquid dental transport media (Anaerobe Systems, Morgan Hill Calif.). The cecal samples in anaerobic transport media were brought into an anaerobic chamber within an hour of collection (Sheldon, Cornelius Oreg.). The three cecal samples from each group (STAT or Control) were pooled, and reduced, sterile saline was added to a final volume of 8 mL, of which 3 mL was used for microbiota transfer. To maintain viability of anaerobic organisms, vials containing the inoculum were not opened. […]
# Mice were fed normal chow, then switched to high fat diet at 6 weeks of age. […] Microbiota recipient mice were given a high fat diet and monitored for 5 weeks. […]
substance,measurement,value
penicillin,Body composition,changes in body composition
